The numbers were not newly measured in patent US20130287898A1, “Trivalent Chromium and Boron Fortifying Composition, a Hydration Supplement, and Process for Preparing the Same” (priority 2010, published 2013), which cites them from elsewhere.

The conditions of series [1]: humans, 270 mg orally.
For series [2] the following is noted: Expert group of vitamins & Minerals, UK - 2003.
The conditions of series [3]: in vivo.

On to `OB(O)O` [boric acid], for which the “discomfort / signs of toxicity” value in series [1] is given as “no obvious signs of toxicity”.
`[Cr]` [Chromium]: the “Safe Upper level per day” value in series [2] is reported as 10 mg.
Consider `[B]` [Boron], for which, in series [3], the “absorption from the gastrointestinal tract” value is reported as “well absorbed” and the excreted through urine result is listed as “about 90%”.
